Results taken from the supplement of paper PMC13380429.

Assays:
Details in all cases: 72 h
Caco-2 [1] = assay: cell viability relative to DMSO; higher = less toxic
HepG2 [2] = assay: as above
U2OS [3] = assay: as above
Vero E6 [4] = assay: as above
Caco-2 [5] = assay: relative viability EC50 (midpoint between 100% and the lowest measured viability); higher = less toxic
HepG2 [6] = assay: as above
U2OS [7] = assay: as above
Vero E6 [8] = assay: as above
Caco-2 [9] = assay: drug sensitivity score (DSS) for viability; higher = more toxic; extreme values may be limits of the assay
HepG2 [10] = assay: as above
U2OS [11] = assay: as above
Vero E6 [12] = assay: as above
Calu-3 [13] = assay: cell viability relative to DMSO; higher = less toxic
Calu-3 [14] = assay: relative viability EC50 (midpoint between 100% and the lowest measured viability); higher = less toxic
Calu-3 [15] = assay: drug sensitivity score (DSS) for viability; higher = more toxic; extreme values may be limits of the assay

SMILES: CO[C@H]1CC[C@@H](C(=O)c2ccc3nc4c(cc3c2)CCCO4)CC1
- cell viability (Caco-2 [1]; 1 nM): 90.8%
- cell viability (Caco-2 [1]; 10 nM): 90.3%
- cell viability (Caco-2 [1]; 100 nM): 104%
- cell viability (Caco-2 [1]; 1000 nM): 99.2%
- cell viability (Caco-2 [1]; 10000 nM): 92.7%
- cell viability (HepG2 [2]; 1 nM): 99.5%
- cell viability (HepG2 [2]; 10 nM): 107%
- cell viability (HepG2 [2]; 100 nM): 104%
- cell viability (HepG2 [2]; 1000 nM): 102%
- cell viability (HepG2 [2]; 10000 nM): 104%
- cell viability (U2OS [3]; 1 nM): 99.8%
- cell viability (U2OS [3]; 10 nM): 93.8%
- cell viability (U2OS [3]; 100 nM): 104%
- cell viability (U2OS [3]; 1000 nM): 97.8%
- cell viability (U2OS [3]; 10000 nM): 101%
- cell viability (Vero E6 [4]; 1 nM): 102%
- cell viability (Vero E6 [4]; 10 nM): 103%
- cell viability (Vero E6 [4]; 100 nM): 93.1%
- cell viability (Vero E6 [4]; 1000 nM): 99%
- cell viability (Vero E6 [4]; 10000 nM): 100%
- relative viability EC50 (Caco-2 [5]): > 10 µM
- relative viability EC50 (HepG2 [6]): > 10 µM
- relative viability EC50 (U2OS [7]): > 10 µM
- relative viability EC50 (Vero E6 [8]): > 10 µM
- drug sensitivity score (Caco-2 [9]): 0
- drug sensitivity score (HepG2 [10]): 0
- drug sensitivity score (U2OS [11]): 0
- drug sensitivity score (Vero E6 [12]): 0

SMILES: COc1cc(NC(=O)c2ccc(-c3ccc(Cl)cc3)o2)cc(OC)c1
- cell viability (Caco-2 [1]; 1 nM): 108%
- cell viability (Caco-2 [1]; 10 nM): 98.9%
- cell viability (Caco-2 [1]; 100 nM): 107%
- cell viability (Caco-2 [1]; 1000 nM): 102%
- cell viability (Caco-2 [1]; 10000 nM): 98.1%
- cell viability (Calu-3 [13]; 1 nM): 121%
- cell viability (Calu-3 [13]; 10 nM): 103%
- cell viability (Calu-3 [13]; 100 nM): 109%
- cell viability (Calu-3 [13]; 1000 nM): 101%
- cell viability (Calu-3 [13]; 10000 nM): 99.3%
- cell viability (HepG2 [2]; 1 nM): 105%
- cell viability (HepG2 [2]; 10 nM): 109%
- cell viability (HepG2 [2]; 100 nM): 91.9%
- cell viability (HepG2 [2]; 1000 nM): 114%
- cell viability (HepG2 [2]; 10000 nM): 102%
- cell viability (Vero E6 [4]; 1 nM): 94.5%
- cell viability (Vero E6 [4]; 10 nM): 101%
- cell viability (Vero E6 [4]; 100 nM): 97.2%
- cell viability (Vero E6 [4]; 1000 nM): 97.6%
- cell viability (Vero E6 [4]; 10000 nM): 101%
- relative viability EC50 (Caco-2 [5]): > 10 µM
- relative viability EC50 (Calu-3 [14]): > 10 µM
- relative viability EC50 (HepG2 [6]): > 10 µM
- relative viability EC50 (Vero E6 [8]): > 10 µM
- drug sensitivity score (Caco-2 [9]): 0
- drug sensitivity score (Calu-3 [15]): 0
- drug sensitivity score (HepG2 [10]): 0
- drug sensitivity score (Vero E6 [12]): 0

SMILES: COc1ccc(Cl)c(Nc2ncnc3cc(OCC4CCN(C)CC4)c(OC)cc23)c1
- cell viability (Caco-2 [1]; 1 nM): 93%
- cell viability (Caco-2 [1]; 10 nM): 108%
- cell viability (Caco-2 [1]; 100 nM): 99.1%
- cell viability (Caco-2 [1]; 1000 nM): 89.9%
- cell viability (Caco-2 [1]; 10000 nM): 68.3%
- cell viability (Calu-3 [13]; 1 nM): 94.5%
- cell viability (Calu-3 [13]; 10 nM): 102%
- cell viability (Calu-3 [13]; 100 nM): 89.7%
- cell viability (Calu-3 [13]; 1000 nM): 75%
- cell viability (Calu-3 [13]; 10000 nM): 28.5%
- cell viability (HepG2 [2]; 1 nM): 99.1%
- cell viability (HepG2 [2]; 10 nM): 105%
- cell viability (HepG2 [2]; 100 nM): 90.6%
- cell viability (HepG2 [2]; 1000 nM): 96.6%
- cell viability (HepG2 [2]; 10000 nM): 87.7%
- cell viability (U2OS [3]; 1 nM): 104%
- cell viability (U2OS [3]; 10 nM): 97.2%
- cell viability (U2OS [3]; 100 nM): 103%
- cell viability (U2OS [3]; 1000 nM): 95.8%
- cell viability (U2OS [3]; 10000 nM): 77.7%
- cell viability (Vero E6 [4]; 1 nM): 95.5%
- cell viability (Vero E6 [4]; 10 nM): 99.3%
- cell viability (Vero E6 [4]; 100 nM): 89.7%
- cell viability (Vero E6 [4]; 1000 nM): 76.6%
- cell viability (Vero E6 [4]; 10000 nM): 27.3%
- relative viability EC50 (Calu-3 [14]): 1.42 µM
- relative viability EC50 (HepG2 [6]): > 10 µM
- relative viability EC50 (U2OS [7]): > 10 µM
- relative viability EC50 (Vero E6 [8]): 1.49 µM
- drug sensitivity score (Caco-2 [9]): 2.9
- drug sensitivity score (Calu-3 [15]): 6.7
- drug sensitivity score (HepG2 [10]): 0
- drug sensitivity score (U2OS [11]): 1.4
- drug sensitivity score (Vero E6 [12]): 6.7

SMILES: C[C@@H]1CN(Cc2ccc(F)cc2)CCN1C(=O)COc1ccc(Cl)cc1NC(N)=O
- cell viability (Caco-2 [1]; 1 nM): 98.2%
- cell viability (Caco-2 [1]; 10 nM): 95.7%
- cell viability (Caco-2 [1]; 100 nM): 92.9%
- cell viability (Caco-2 [1]; 1000 nM): 81.3%
- cell viability (Caco-2 [1]; 10000 nM): 66.6%
- cell viability (Calu-3 [13]; 1 nM): 97.1%
- cell viability (Calu-3 [13]; 10 nM): 104%
- cell viability (Calu-3 [13]; 100 nM): 98.1%
- cell viability (Calu-3 [13]; 1000 nM): 104%
- cell viability (Calu-3 [13]; 10000 nM): 85%
- cell viability (HepG2 [2]; 1 nM): 93.3%
- cell viability (HepG2 [2]; 10 nM): 101%
- cell viability (HepG2 [2]; 100 nM): 87.7%
- cell viability (HepG2 [2]; 1000 nM): 51.9%
- cell viability (HepG2 [2]; 10000 nM): 19.1%
- cell viability (U2OS [3]; 1 nM): 103%
- cell viability (U2OS [3]; 10 nM): 96.1%
- cell viability (U2OS [3]; 100 nM): 99.3%
- cell viability (U2OS [3]; 1000 nM): 95%
- cell viability (U2OS [3]; 10000 nM): 72.8%
- cell viability (Vero E6 [4]; 1 nM): 103%
- cell viability (Vero E6 [4]; 10 nM): 113%
- cell viability (Vero E6 [4]; 100 nM): 93.3%
- cell viability (Vero E6 [4]; 1000 nM): 104%
- cell viability (Vero E6 [4]; 10000 nM): 93%
- relative viability EC50 (Calu-3 [14]): > 10 µM
- relative viability EC50 (HepG2 [6]): 0.635 µM
- relative viability EC50 (Vero E6 [8]): > 10 µM
- drug sensitivity score (Caco-2 [9]): 3.6
- drug sensitivity score (Calu-3 [15]): 0.1
- drug sensitivity score (HepG2 [10]): 10.8
- drug sensitivity score (U2OS [11]): 1.9
- drug sensitivity score (Vero E6 [12]): 0

SMILES: Cn1cc(C(F)(F)F)nc1-c1ccc(OCC(O)CNCCOc2ccc(O)c(C(N)=O)c2)cc1 (stereo not given)
- cell viability (Caco-2 [1]; 1 nM): 102%
- cell viability (Caco-2 [1]; 10 nM): 96.6%
- cell viability (Caco-2 [1]; 100 nM): 102%
- cell viability (Caco-2 [1]; 1000 nM): 98.7%
- cell viability (Caco-2 [1]; 10000 nM): 87.4%
- cell viability (HepG2 [2]; 1 nM): 111%
- cell viability (HepG2 [2]; 10 nM): 97%
- cell viability (HepG2 [2]; 100 nM): 122%
- cell viability (HepG2 [2]; 1000 nM): 94.3%
- cell viability (HepG2 [2]; 10000 nM): 114%
- cell viability (U2OS [3]; 1 nM): 98.7%
- cell viability (U2OS [3]; 10 nM): 100%
- cell viability (U2OS [3]; 100 nM): 94%
- cell viability (U2OS [3]; 1000 nM): 101%
- cell viability (U2OS [3]; 10000 nM): 98.1%
- cell viability (Vero E6 [4]; 1 nM): 104%
- cell viability (Vero E6 [4]; 10 nM): 96.4%
- cell viability (Vero E6 [4]; 100 nM): 102%
- cell viability (Vero E6 [4]; 1000 nM): 90.1%
- cell viability (Vero E6 [4]; 10000 nM): 95.7%
- relative viability EC50 (Caco-2 [5]): > 10 µM
- relative viability EC50 (HepG2 [6]): > 10 µM
- relative viability EC50 (U2OS [7]): > 10 µM
- relative viability EC50 (Vero E6 [8]): > 10 µM
- drug sensitivity score (Caco-2 [9]): 0.2
- drug sensitivity score (HepG2 [10]): 0
- drug sensitivity score (U2OS [11]): 0
- drug sensitivity score (Vero E6 [12]): 0

SMILES: O=C(NC1(c2ccccc2)CC1)c1c(CN2CCC(N3CCCCC3)CC2)c(-c2cccc(C(F)(F)F)c2)nc2cc(Br)ccc12
- cell viability (Caco-2 [1]; 1 nM): 95.4%
- cell viability (Caco-2 [1]; 10 nM): 88.3%
- cell viability (Caco-2 [1]; 100 nM): 112%
- cell viability (Caco-2 [1]; 1000 nM): 98.8%
- cell viability (Caco-2 [1]; 10000 nM): 55.2%
- cell viability (Calu-3 [13]; 1 nM): 97.1%
- cell viability (Calu-3 [13]; 10 nM): 90.2%
- cell viability (Calu-3 [13]; 100 nM): 96%
- cell viability (Calu-3 [13]; 1000 nM): 85.8%
- cell viability (Calu-3 [13]; 10000 nM): 1.2%
- cell viability (HepG2 [2]; 1 nM): 93.6%
- cell viability (HepG2 [2]; 10 nM): 101%
- cell viability (HepG2 [2]; 100 nM): 104%
- cell viability (HepG2 [2]; 1000 nM): 102%
- cell viability (HepG2 [2]; 10000 nM): 45.4%
- cell viability (U2OS [3]; 1 nM): 98.5%
- cell viability (U2OS [3]; 10 nM): 95.1%
- cell viability (U2OS [3]; 100 nM): 101%
- cell viability (U2OS [3]; 1000 nM): 96%
- cell viability (U2OS [3]; 10000 nM): 15.7%
- cell viability (Vero E6 [4]; 1 nM): 93.3%
- cell viability (Vero E6 [4]; 10 nM): 98.3%
- cell viability (Vero E6 [4]; 100 nM): 102%
- cell viability (Vero E6 [4]; 1000 nM): 99.3%
- cell viability (Vero E6 [4]; 10000 nM): 38.4%
- relative viability EC50 (Calu-3 [14]): 2.02 µM
- relative viability EC50 (HepG2 [6]): 3.4 µM
- relative viability EC50 (U2OS [7]): 2.81 µM
- relative viability EC50 (Vero E6 [8]): 3.09 µM
- drug sensitivity score (Caco-2 [9]): 2.5
- drug sensitivity score (Calu-3 [15]): 7.8
- drug sensitivity score (HepG2 [10]): 2.7
- drug sensitivity score (U2OS [11]): 5.2
- drug sensitivity score (Vero E6 [12]): 3.4
